The values below come from article PMC6367342, “The major allergen Der p 2 is a cholesterol binding protein” (Scientific Reports, 2019).

Molecules are shown by their SMILES.

This experiment has as its target T1, rDer f 2 (Dermatophagoides farinae, UniProt Q00855).
T1 construct: gene DERF2
T1 sequence (Q00855 18-146): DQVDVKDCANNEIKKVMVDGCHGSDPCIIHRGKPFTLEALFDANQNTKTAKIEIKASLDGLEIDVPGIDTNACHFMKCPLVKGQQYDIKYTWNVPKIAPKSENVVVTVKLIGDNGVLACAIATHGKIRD
Description: lipid ELISA on immobilized lipid, polyclonal anti-allergen IgG detection. In kind it is binding. As to conditions: 0.5 ug/mL protein; lipid coated 0.02-6.40 nmol/well; PBS, 1% BSA block; 1 h. (In general: An ELISA detects its analyte on a solid surface through an enzyme-linked reagent.)

As for `CC(C)CCC[C@@H](C)[C@H]1CC[C@H]2[C@@H]3CC=C4C[C@@H](O)CC[C@]4(C)[C@H]3CC[C@]12C` [cholesterol], the “lipid ELISA on immobilized lipid, polyclonal anti-allergen IgG detection” value is reported as “also showed dose-dependent binding to cholesterol, but not POPG”.
